Test results: ChEMBL document CHEMBL5360600, “Optimization of 1,2,4-Triazole-Based p97 Inhibitors for the Treatment of Cancer” (ACS Med Chem Lett, 2023)
In brackets after ≈: the same amount, converted by molar mass. Activity calls are given as the source filed them. No cut-off for these calls is given here.

Experiments:
[1] = Metabolic stability in mouse liver microsome assessed as half life at 1 uM incubated upto 45 mins in presence of NADPH-regenerating system by LC-MS analysis; type: ADME; conditions: liver microsomes
[2] = AUClast in CD-1 mouse at 5 mg/kg, iv incubated upto 24 hrs by LC-MS/MS analysis; type: ADME, organism-based; set-up: dose 5 mg/kg, time < 24 hrs, route iv; conditions: in vivo
HCT-116 = assay: Cytotoxicity against human HCT-116 cells assessed as reduction in cell viability incubated for 48 hrs by celltiter glo-luminescent assay; type: functional, cell-based; conditions: HCT-116, 48 h
[3] = Cmax in CD-1 mouse at 50 mg/kg, po incubated upto 24 hrs by LC-MS/MS analysis; type: ADME, organism-based; set-up: dose 50 mg/kg, time < 24 hrs, route po; conditions: in vivo
[4] = target: T1, Transitional endoplasmic reticulum ATPase (Homo sapiens, UniProt P55072); assay: Inhibition of p97 in human HCT-116 cells assessed as increase in caspase-3 level at 1 uM incubated for 24 hrs by quantitative sandwich immunoassay method relative to control; type: cell-based
Target sequence in this assay (P55072 2-806 limits assumed): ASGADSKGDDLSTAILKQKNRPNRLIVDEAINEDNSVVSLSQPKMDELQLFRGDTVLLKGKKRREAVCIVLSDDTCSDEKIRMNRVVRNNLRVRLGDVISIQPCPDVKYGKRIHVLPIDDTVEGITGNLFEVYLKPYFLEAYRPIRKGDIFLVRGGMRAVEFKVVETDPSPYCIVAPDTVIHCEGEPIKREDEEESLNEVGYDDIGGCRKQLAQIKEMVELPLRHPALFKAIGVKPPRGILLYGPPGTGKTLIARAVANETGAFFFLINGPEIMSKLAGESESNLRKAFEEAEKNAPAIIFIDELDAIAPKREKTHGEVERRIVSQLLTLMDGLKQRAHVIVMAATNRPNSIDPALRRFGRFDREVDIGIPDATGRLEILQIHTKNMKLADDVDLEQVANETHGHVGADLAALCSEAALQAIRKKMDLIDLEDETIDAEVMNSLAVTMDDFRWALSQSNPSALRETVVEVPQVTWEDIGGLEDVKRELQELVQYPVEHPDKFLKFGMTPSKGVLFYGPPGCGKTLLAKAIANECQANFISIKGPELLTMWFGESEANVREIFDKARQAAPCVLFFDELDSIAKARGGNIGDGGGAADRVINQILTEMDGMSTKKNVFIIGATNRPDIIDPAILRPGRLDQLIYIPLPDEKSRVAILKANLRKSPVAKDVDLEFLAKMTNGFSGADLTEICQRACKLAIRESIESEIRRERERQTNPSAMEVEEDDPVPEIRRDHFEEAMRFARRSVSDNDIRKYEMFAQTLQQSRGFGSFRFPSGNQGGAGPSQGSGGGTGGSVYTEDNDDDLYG

[5] = Half life in CD-1 mouse at 50 mg/kg, ip incubated upto 24 hrs by LC-MS/MS analysis; type: ADME, organism-based; conditions: in vivo
[6] = target: T1, Transitional endoplasmic reticulum ATPase; assay: Inhibition of p97 in human HCT-116 cells assessed as increase in caspase-3 level at 0.04 to 6 uM pretreated for 2 hrs followed by washout and measured after 6 to 24 hrs by quantitative sandwich immunoassay method; type: cell-based; conditions: dose 0.04-6 µM
Target sequence in this assay (P55072 2-806 limits assumed): as above

[7] = AUClast in CD-1 mouse at 50 mg/kg, po incubated upto 24 hrs by LC-MS/MS analysis; type: ADME, organism-based; set-up: time < 24 hrs, dose 50 mg/kg, route po; conditions: in vivo
[8] = Oral bioavailability in CD-1 mouse at 50 mg/kg incubated upto 24 hrs by LC-MS/MS analysis; type: ADME, organism-based; conditions: in vivo
[9] = Half life in CD-1 mouse at 50 mg/kg, po incubated upto 24 hrs by LC-MS/MS analysis; type: ADME, organism-based; conditions: in vivo
[10] = Solubility of compound at pH 7.4 in PBS by UV/visible spectrophotometer analysis; type: physicochemical
[11] = Volume of distribution at steady state in CD-1 mouse at 5 mg/kg, iv incubated upto 24 hrs by LC-MS/MS analysis; type: ADME, organism-based; conditions: in vivo, read-out: Vdss
[12] = Cmax in CD-1 mouse at 50 mg/kg, ip incubated upto 24 hrs by LC-MS/MS analysis; type: ADME, organism-based; set-up: time < 24 hrs, dose 50 mg/kg, route ip; conditions: in vivo
[13] = Clearance in CD-1 mouse at 5 mg/kg, iv incubated upto 24 hrs by LC-MS/MS analysis; type: ADME, organism-based; conditions: in vivo
[14] = Half life in CD-1 mouse at 5 mg/kg, iv incubated upto 24 hrs by LC-MS/MS analysis; type: ADME, organism-based; conditions: in vivo
[15] = AUClast in CD-1 mouse at 50 mg/kg, ip incubated upto 24 hrs by LC-MS/MS analysis; type: ADME, organism-based; set-up: time < 24 hrs, dose 50 mg/kg, route ip; conditions: in vivo
[16] = target: T1, Transitional endoplasmic reticulum ATPase; assay: Inhibition of p97 in human HeLa cells expressing UbG76V-GFP/ODD-Luc assessed as accumulation of Ub-GFP incubated for 6 hrs by confocal microscopic analysis; type: cell-based
Target sequence in this assay (P55072 whole entry): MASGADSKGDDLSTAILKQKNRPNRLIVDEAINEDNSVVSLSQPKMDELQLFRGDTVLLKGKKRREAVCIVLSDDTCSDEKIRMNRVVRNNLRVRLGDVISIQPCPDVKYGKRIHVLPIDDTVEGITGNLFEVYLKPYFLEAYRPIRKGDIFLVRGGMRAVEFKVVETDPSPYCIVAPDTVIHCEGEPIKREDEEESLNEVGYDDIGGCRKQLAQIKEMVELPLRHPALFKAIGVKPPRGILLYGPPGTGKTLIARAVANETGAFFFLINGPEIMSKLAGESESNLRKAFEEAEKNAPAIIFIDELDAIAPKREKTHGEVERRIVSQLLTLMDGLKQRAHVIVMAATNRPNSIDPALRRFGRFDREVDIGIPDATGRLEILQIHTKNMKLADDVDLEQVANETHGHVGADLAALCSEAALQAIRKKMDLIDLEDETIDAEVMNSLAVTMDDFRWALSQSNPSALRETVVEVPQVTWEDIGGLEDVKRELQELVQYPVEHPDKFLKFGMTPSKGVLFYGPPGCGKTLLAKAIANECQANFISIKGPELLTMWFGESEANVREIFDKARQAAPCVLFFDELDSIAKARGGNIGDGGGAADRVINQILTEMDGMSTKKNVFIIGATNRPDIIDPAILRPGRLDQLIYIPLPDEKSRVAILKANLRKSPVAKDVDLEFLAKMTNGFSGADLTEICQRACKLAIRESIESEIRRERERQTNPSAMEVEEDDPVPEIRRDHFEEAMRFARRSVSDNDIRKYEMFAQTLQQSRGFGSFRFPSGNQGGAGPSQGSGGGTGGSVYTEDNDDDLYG

[17] = Solubility of compound in PBS incubated for 30 minutes by clear-bottomed UV analysis; type: physicochemical
[18] = target: T1, Transitional endoplasmic reticulum ATPase; assay: Inhibition of p97 (unknown origin) ATPase activity by Biomol Green Reagent based microplate reader analysis
Target sequence in this assay (P55072 whole entry): as above

[19] = target: T1, Transitional endoplasmic reticulum ATPase; assay: Inhibition of p97 in human HCT-116 cells assessed as increase in Ub-K48 level at 100 nM incubated for 6 hrs by quantitative sandwich immunoassay method relative to control; type: cell-based
Target sequence in this assay (P55072 2-806 limits assumed): as the sequence (P55072 2-806 limits assumed) above

| half-life at […], 1 µM [1] [min] | EC50 [16] [nM] | solubility at 0.5 h [17] [µM] | IC50 [18] [nM] | Compound | IC50 (HCT-116) [nM] | further results |
| --- | --- | --- | --- | --- | --- | --- |
| 5 |  |  |  | CN1CCC(NC(=O)OCC#Cc2cc(F)c(OCc3nnc(S[C@H]4C=CCCC4)n3-c3cccnc3)cc2F)CC1 | 340 | AUC(0-t) at 24 h [2]: 371 ng·h/mL; Cmax [3]: 366 ng/mL; inhibition [4]: Active; half-life [5]: 96 min; inhibition [6]: Active; AUC(0-t) at 24 h [7]: 601 ng·h/mL; bioavailability [8]: 17%; half-life [9]: 126 min; solubility [10]: 74 µM (≈ 44 µg/mL); Vd [11]: 5.9 L/kg; Cmax [12]: 12700 ng/mL; clearance [13]: 234 mL/min/kg; half-life [14]: 41.4 min; AUC(0-t) at 24 h [15]: 9290 ng·h/mL |
| < 10 | > 40000 | 110 (≈ 62.8 µg/mL) | 300 | Cc1cc(OCc2nnc(SC3CCC(F)(F)CC3)n2-c2cccnc2)ccc1-c1ccc(S(C)(=O)=O)cc1 |  |  |
| > 60 | > 40000 | 370 (≈ 198 µg/mL) | > 6000 | Cc1cc(OCc2nnc(SC3CCNCC3)n2-c2cccnc2)ccc1-c1ccc(S(C)(=O)=O)cc1 |  |  |
| 9 |  |  |  | Cc1cc(OCc2nnc(SC3CCCC3)n2-c2cccnc2)ccc1-c1ccc(S(C)(=O)=O)cc1 |  |  |
| 8 | 1300 |  |  | CN1CCC(NC(=O)OCC#Cc2ccc(OCc3nnc(SC4C=CCCC4)n3-c3cccnc3)c(F)c2F)CC1 (centres undefined) | 3200 | solubility [10]: 54 µM (≈ 32.1 µg/mL) |
| 6 |  | 29 (≈ 15.4 µg/mL) |  | [2H]C1([2H])C([2H])([2H])C([2H])([2H])C([2H])(Sc2nnc(COc3ccc(-c4ccc(S(C)(=O)=O)cc4)c(C)c3)n2-c2cccnc2)C1([2H])[2H] |  |  |
| 7 | 2700 |  |  | Cc1cc(OCc2nnc(SC3C=CCCC3)n2-c2cccnc2)ccc1C#CCNS(C)(=O)=O (centres undefined) |  |  |
| 7 | 820 | 61 (≈ 34.9 µg/mL) | 23 | Cc1cc(OCc2nnc(SC3C=CCCC3)n2-c2cccnc2)ccc1C#CCOC(=O)NC1CCN(C)CC1 (centres undefined) | 2100 | solubility [10]: 61 µM (≈ 34.9 µg/mL) |
| 24 | 4500 | 53 (≈ 22.9 µg/mL) |  | Cc1cc(OCc2nnc(SC3C=CCCC3)n2-c2cccnc2)ccc1C#CCN (centres undefined) |  |  |
| < 10 | 940 | 140 (≈ 74.6 µg/mL) | 34 | Cc1cc(OCc2nnc(SC3C=CCCC3)n2-c2cccnc2)ccc1-c1ccc(S(C)(=O)=O)cc1 (centres undefined) |  |  |
| 4 | 820 |  |  | CN1CCN(CCNC(=O)OCC#Cc2ccc(OCc3nnc(SC4C=CCCC4)n3-c3cccnc3)cc2F)CC1 (centres undefined) | 1350 | solubility [10]: 60 µM (≈ 36.3 µg/mL) |
|  | 360 |  | 11 | CN1CCC(NC(=O)OCC#Cc2c(F)cc(OCc3nnc(SC4C=CCCC4)n3-c3cccnc3)cc2F)CC1 (centres undefined) | 730 | inhibition [19]: 123% |
|  |  |  |  | CN1CCC(NC(=O)OCC#Cc2cc(F)c(OCc3nnc(S[C@@H]4C=CCCC4)n3-c3cccnc3)cc2F)CC1 | 4740 |  |
| 8 | 640 |  | 9.7 | [2H]C1([2H])C([2H])([2H])C([2H])([2H])C([2H])(Sc2nnc(COc3cc(F)c(C#CCOC(=O)NC4CCN(C)CC4)cc3F)n2-c2cccnc2)C1([2H])[2H] | 1370 | solubility [10]: 83 µM (≈ 49.1 µg/mL) |
| 3 |  |  |  | CN1CCC(NC(=O)OCC#Cc2cc(F)c(OCc3nnc(SC4C=CCCC4)n3-c3cccnc3)cc2F)CC1 (centres undefined) | 850 | inhibition [19]: 133%; solubility [10]: 71 µM (≈ 42.2 µg/mL) |
| 8 | 1500 | 130 (≈ 68.7 µg/mL) | 41 | Cc1cc(OCc2nnc(SC3C=CCCC3)n2-c2cccnc2)ccc1C#CCNC1CCN(C)CC1 (centres undefined) |  |  |
| 13 | > 40000 | 9 (≈ 4.96 µg/mL) | 320 | Cc1cc(OCc2nnc(SC3CCCC=C3F)n2-c2cccnc2)ccc1-c1ccc(S(C)(=O)=O)cc1 (centres undefined) |  |  |
| 8 | 2700 |  |  | Cc1cc(OCc2nnc(SC3C=CCCC3)n2-c2cccnc2)ccc1C#CCNC(C)C (centres undefined) |  |  |
| 9 | > 40000 | 24 (≈ 14.2 µg/mL) |  | Cc1cc(OCc2nnc(SC3C=CCCC3)n2-c2cccnc2)ccc1C#CCNS(=O)(=O)c1ccc(F)cc1 (centres undefined) |  |  |
| < 10 | 1800 |  | 29 | Cc1cc(OCc2nnc(SC3C=CCCC3)n2-c2cccnc2)ccc1C#CCOC(=O)N1CCN(C)CC1 (centres undefined) | 2400 |  |
| 7 | 11000 | 92 (≈ 48.9 µg/mL) | 150 | Cc1cc(OCc2nnc(SC3C=CCCC3)n2-c2cccnc2)ccc1C#CCNC(=O)OC(C)(C)C (centres undefined) |  |  |
| < 10 | 47000 | 150 (≈ 80.5 µg/mL) | 460 | Cc1cc(OCc2nnc(SC3CCOCC3)n2-c2cccnc2)ccc1-c1ccc(S(C)(=O)=O)cc1 |  |  |
| 8 | 890 |  | 21 | Cc1cc(OCc2nnc(SC3C=CCCC3)n2-c2cccnc2)ccc1C#CCOC(=O)NCCN1CCN(C)CC1 (centres undefined) | 2800 |  |
|  | 1900 |  | 32 | CCC(=O)NCC#Cc1ccc(OCc2nnc(SC3C=CCCC3)n2-c2cccnc2)cc1C (centres undefined) |  |  |
| 13 | > 40000 | 260 (≈ 133 µg/mL) | 2010 | COCCSc1nnc(COc2ccc(-c3ccc(S(C)(=O)=O)cc3)c(C)c2)n1-c1cccnc1 |  |  |
| 8 | 2400 | 170 (≈ 90.9 µg/mL) | 60 | Cc1cc(OCc2nnc(SC3CCCCC3)n2-c2cccnc2)ccc1-c1ccc(S(C)(=O)=O)cc1 |  |  |
| 1.2 | 1300 | 39 (≈ 16.9 µg/mL) | 40 | Cc1cc(OCc2nnc(SC3C=CCCC3)n2-c2cccnc2)ccc1C#CCO (centres undefined) | 4700 | solubility [10]: 39 µM (≈ 16.9 µg/mL) |
